# Reference: paper PMC9502870
# Assay: Intramolecular Nicholas reaction: C-O or C-N bond formation between OH/NHR nucleophile and Co2(CO)6-stabilised propargyl cation (from propargylic OMe), BF3·Et2O 1.3-8 equiv, 0 °C to rt
# Conditions: the molecule shown is the open-chain precursor, 10-membered ring, DCM, 1.0 mM, 25.0 °C
structure (smiles),measurement,setting,value
COCC#Cc1sc2ccccc2c1C#CCC(O)CC(=O)OC (stereo not shown) [4 -> 5],"ring closure, isolated yield",1.0 h,51%
COCC#Cc1sc2ccccc2c1C#CCCNS(=O)(=O)c1ccccc1[N+](=O)[O-] [12a -> 13a],"ring closure, isolated yield",1.0 h,46%
"COCC#Cc1sc2ccccc2c1C#CCCNS(=O)(=O)c1ccc(N)cc1 [12b (free NH2, no cyclization)]","ring closure, isolated yield",,0%
C#CCCCC(=O)Nc1ccc(S(=O)(=O)NCCC#Cc2c(C#CCOC)sc3ccccc23)cc1 [12c -> 13b],"ring closure, isolated yield",1.0 h,63%
COCC#Cc1sc2ccccc2c1C#CCCNCc1ccccc1 [17a -> 18 (BF3·Et2O)],"ring closure, isolated yield",20.0 h,4%
COCC#Cc1sc2ccccc2c1C#CCCNC(=O)c1ccccc1 [17b (no macrocycle; pyrroline 19 formed)],"ring closure, isolated yield",2.0 h,0%
COCC#Cc1sc2ccccc2c1C#CCCNS(=O)(=O)c1ccc(C)cc1 [NHTs Co-complex -> 13c (ref 42)],"ring closure, isolated yield",,76%
